Patent publication US20060276381A1, “Remedy for diabetes” (Chugai Seiyaki Kabushiki Kaisha, priority 2002, published 2006)
No end group written: not given here.

Columns and labels:
food-deprived mice = assay: Feeding tests in food-deprived lean mice; type: in vivo; settings: for Food intake: IP administration, food-deprived mice
[1] = rat des-Gln14-ghrelin; cited from earlier work
[2] = test system: mice with diet-induced obesity; assay: Feeding test in mice with diet-induced obesity; type: in vivo; settings: IP, acute
[3] = test system: gastric emptying rate in mice; assay: Gastric emptying; type: in vivo; settings: IP, one hour after administration
Procedure: Before the experiments on gastric emptying, mice were food deprived for 16 hours with free access to water. The fasted mice had free access to pre-weighed pellets for one hour and were then administered [D-Lys-3]-GHRP-6. The mice were deprived of food again for one or two hours after administration. Food intake was measured by weighing the uneaten pellets. Mice were killed by cervical dislocation two or three hours after the start of the experiments. Immediately after that, the stomach was exposed by laparotomy, quickly ligated at both the pylorus and cardia, then removed, and its dry content was weighed. Gastric emptying was calculated according to the following formula: gastric emptying (%)={1−(dry weight of food recovered from the stomach/weight of food intake)}×100. (8) Repeated Administration

ob/ob mice = assay: Feeding test in ob/ob mice; type: in vivo; settings: IP
GHS-R in the brain = biological target: T1, GHS-R in the brain (Mus musculus, UniProt Q99P50); assay: Simultaneous administration of ghrelin (IP) and [D-Lys-3]-GHRP-6 (ICV), food intake; type: in vivo, mice; settings: free access to food
T1 construct: possibility that ghrelin would act through GHS-R in the brain; from tissue; host or cells: brain of living mice (ICV administration)
Procedure: For ICV administration, the mice were anesthetized with sodium pentobarbital (80-85 mg/kg IP) and placed in a stereotaxic instrument (SR-6, Narishige, Tokyo, Japan) seven days before the experiments. A hole was made in each skull by using a needle inserted 0.9 mm lateral to the central suture and 0.9 mm posterior to the bregma. A 24-gauge cannula (Safelet-Cas, Nipro, Osaka, Japan) beveled at one end over a distance of 3 mm was implanted into the third cerebral ventricle for ICV administration. The cannula was fixed to the skull with dental cement and capped with silicon. A 27-gauge injection insert was attached to a microsyringe by PE-20 tubing.
Before feeding tests, mice were food deprived for 16 hours with free access to water, except during an experiment on the effect of co-administration of [D-Lys-3]-GHRP-6 and ghrelin on food intake, in which mice were given free access to food and water. Food intake was measured by subtracting uneaten food from the initially pre-measured food at 20 minutes, 1, 2 and 4 hours after administration.
In order to evaluate the possibility that ghrelin would act through GHS-R in the brain, the inventors examined the effects of simultaneous administration of ghrelin and [D-Lys-3]-GHRP-6 on food intake.

ob/ob obese mice = assay: Repeated IP administration of [D-Lys-3]-GHRP-6 in ob/ob obese mice; type: in vivo
pituitary gland cells = settings: primary culture of pituitary gland cells; cited from earlier work
GHS-R = GHS-R (Rattus norvegicus, UniProt O08725); settings: CHO cells having GHS-R expressed, chemically synthesized ghrelin; cited from earlier work
rats = rats in vivo; cited from earlier work
[4] = test system: lean mice under a high-fat diet
Procedure: Male mice of the ddy strain (34-37 g, JAPAN SLC, Shizuoka, Japan) and obese (ob/ob) C57BL/6J mice (68-74 g, Shionogi Co., Ltd., Shiga, Japan) were used. They were individually housed in a regulated environment (22±2° C., 55±10% humidity, 12:12 hour light:dark cycle with light on at 7:00 AM). Mice received a standard diet containing 12% of total energy as fat or a high-fat diet containing 45% of total energy as fat (CLEA Japan, INC., Tokyo, Japan). Food and water were available ad lib except as otherwise indicated. All experiments were approved by Kobe University animal care committee.
[D-Lys-3]-GHRP-6, [D-Arg-1, D-Phe-5, D-Trp-7, 9, Leu-11] substance P and rat ghrelin were purchased from BACHEM CALIFORNIA INC. (Torrance, Calif., USA), NEOSYSTEM (Strasbourg, France) and Peptide Institute (Osaka, Japan), respectively. Just before administration, each drug was diluted in 4 μl of artificial cerebrospinal fluid (ACSF) for intra-third cerebroventricular (ICV) administration or in 100 μl of physiological saline for intraperitoneal (IP) administration. Results are expressed as mean value±s.e.m. Analysis of variance(ANOVA) followed by Bonferroni's t test was used to assess the differences among groups. P<0.05 was considered to be statistically significant.
(§1) Repeated IP administrations were continued for five days in lean mice under a high-fat diet or a standard diet, and for six days in […] obese mice under a standard diet, respectively. The mice were given the administration at 7:00 AM and 19:00 PM. Food intake and body weight were measured daily. Serum was separated from blood obtained from the orbital sinus under ether anesthesia at the end of the experiment (eight hours after removal of food and the final IP administration). Mice were killed by cervical dislocation. Immediately after that, the epididymal fat pad mass assessed as white adipose tissue (WAT) and the gastrocnemius muscle were removed and weighed. Blood glucose was measured by the glucose oxidase method. Serum insulin and free fatty acids (FFA) were measured by enzyme immunoassay and enzymatic method (EIKEN CHEMICAL CO., LTD., Tokyo, Japan), respectively. Serum triglycerides and total cholesterol were measured by an enzymatic method (Wako Pure Chemical Industries, Ltd., Tokyo, Japan).
(§2) Subsequently, mRNA levels of leptin, adiponectin and resistin in WAT were assessed.

[5] = test system: leptin and resistin mRNA in WAT; settings: repeated IP administrations of ghrelin
Procedure: as §1, §2

[6] = 20 nmol IP every 12 hours for 6 days
[7] = 200 nmol IP every 12 hours for 6 days
[8] = HF diet, every 12 hours for 5 days, lean mice, mean ± s.e.m.
[9] = IP 3 nmol/mouse twice daily for five days
[10] = IP 3 nmol/mouse twice daily for five days, high-fat diet

T1 sequence (Q99P50 whole entry): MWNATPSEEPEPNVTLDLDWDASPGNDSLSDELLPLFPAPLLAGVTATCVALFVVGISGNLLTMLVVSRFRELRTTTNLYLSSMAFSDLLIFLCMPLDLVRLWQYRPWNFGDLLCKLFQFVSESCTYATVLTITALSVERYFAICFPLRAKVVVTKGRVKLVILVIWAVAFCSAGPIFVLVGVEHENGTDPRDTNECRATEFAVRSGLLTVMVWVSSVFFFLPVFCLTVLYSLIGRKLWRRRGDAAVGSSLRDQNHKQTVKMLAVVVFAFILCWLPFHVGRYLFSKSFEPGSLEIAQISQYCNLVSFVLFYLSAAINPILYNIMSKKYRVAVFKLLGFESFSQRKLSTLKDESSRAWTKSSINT
GHS-R, sequence (O08725 whole entry): as the sequence (Q99P50 whole entry) above, with S30P, S249A counted along it

In the case of “[D-Arg-1, D-Phe-5, D-Trp-7, 9, Leu-11] substance P”, the Food intake (food-deprived mice) is reported as “significantly reduced food intake in a dose-dependent manner”.

For “des-Gln14-ghrelin: ghrelin analog in which Gln 14 in ghrelin is deleted (GSSFLSPEHQKAQRKESKKPPAKLQPR; ends and bridges not checked; UniProt Q9QYH7 24-51, looked up, variant Q14*)”, the “Growth hormone releasing activity relative to ghrelin” value [1] is listed as “the same intensity of growth hormone releasing activity”.

For [D-Lys-3]-GHRP-6, the Body weight gain [2] was “resulting decrease in body weight gain”, the Food intake [2] was “decreased potently” and the Gastric emptying rate [3] was “significant decrease in the gastric emptying rate”. The Food intake (ob/ob mice) was “significantly reduced food intake in ob/ob mice”, the Feeding behavior (food-deprived mice; ICV administration) was “potent decrease in feeding behavior” and the Food intake (food-deprived mice) was “significantly reduced food intake in a dose-dependent manner”. For the same substance, the “Effect on feeding induced by IP administration of ghrelin” value (GHS-R in the brain; [D-Lys-3]-GHRP-6 ICV) was “abolished the stimulatory effects on the feeding”, the Cholesterol (ob/ob obese mice; [6]) was 219.0 ± 11.24 mg/dL and the “Fat pad mass (epididymal)” value (ob/ob obese mice; [6]) was 0.897 ± 0.169 g. For the same substance, the Food intake (ob/ob obese mice; [6]) was 4.527 ± 0.261 g/day, the Free fatty acids (ob/ob obese mice; [6]) was 2.036 ± 0.121 meq/l and the “Glucose (blood)” value (ob/ob obese mice; [6]) was 217.3 ± 27.90 mg/dL. For the same substance, the Insulin (ob/ob obese mice; [6]) was 41.61 ± 10.85 ng/mL, the “Skeletal muscle (gastrocnemius)” value (ob/ob obese mice; [6]) was 0.314 ± 0.009 g and the Triglycerides (ob/ob obese mice; [6]) was 38.57 ± 3.551 mg/dL. The Cholesterol (ob/ob obese mice; [7]) was 228.4 ± 21.84 mg/dL, the “Fat pad mass (epididymal)” value (ob/ob obese mice; [7]) was 0.860 ± 0.086 g and the Food intake (ob/ob obese mice; [7]) was 4.285 ± 0.298 g/day. The Free fatty acids (ob/ob obese mice; [7]) was 1.646 ± 0.078 meq/l, the “Glucose (blood)” value (ob/ob obese mice; [7]) was 134.9 ± 19.47 mg/dL and the Insulin (ob/ob obese mice; [7]) was 36.54 ± 8.695 ng/mL. The “Skeletal muscle (gastrocnemius)” value (ob/ob obese mice; [7]) was 0.326 ± 0.013 g, the Triglycerides (ob/ob obese mice; [7]) was 41.14 ± 5.990 mg/dL and the Blood glucose concentrations (ob/ob obese mice; repeated administrations) was “significantly lowered”. For the same substance, the Body weight gain (ob/ob obese mice; repeated administrations) was “significantly lowered”, the Muscle weight (ob/ob obese mice; repeated administrations) was “without reducing the muscle weight” and the “Reduction of FFA levels compared with physiological saline-treated ob/ob mice” value (ob/ob obese mice; repeated administrations) was 24%.

For ghrelin, the Growth hormone release (pituitary gland cells) is given as “activity of releasing growth hormone”, the “Amount having the activity of elevating intracellular Ca++” value (GHS-R) is given as “nanomolar order” and the “Growth hormone in the blood” value (rats) is given as “elevates growth hormone in the blood”. The “Feeding after IP ghrelin” value (GHS-R in the brain) was “stimulatory effects on the feeding”, the Calorie intake [4, 8] was 25.94 ± 2.562 kcal/day and the Cholesterol [4, 8] was 224.8 ± 19.69 mg/dL. For the same substance, the “Fat pad mass (epididymal)” value [4, 8] was 1.202 ± 0.175 g, the Free fatty acids [4, 8] was 1.636 ± 0.047 meq/l and the “Glucose (blood)” value [4, 8] was 160.5 ± 8.977 mg/dL. The Insulin [4, 8] was 2.520 ± 0.945 ng/mL, the “Skeletal muscle (gastrocnemius)” value [4, 8] was 0.340 ± 0.005 g and the Triglycerides [4, 8] was 32.80 ± 7.965 mg/dL. The “Fat pad mass increase compared with saline-treated mice fed high-fat diet” value [4, 9] was 125%, the “Fat pad mass increase compared with saline-treated mice fed standard diet” value [4, 9] was 49% and the Blood glucose concentrations [4, 10] was “moderate increase”. The Body weight gain [4, 10] was “increased significantly”, the Daily energy intake [4, 10] was “concomitant increase” and the Serum cholesterol level [4, 10] was “also increased”. The Serum insulin level [4, 10] was “also increased”, the Skeletal muscle weight [4, 10] was “did not show any increase in weight” and the “Leptin mRNA expression in WAT” value [5] was “increased”. For the same substance, the “Resistin mRNA expression in WAT” value [5] was “reducing”.
